Laboratory results published in patent publication US9963462B2 (priority 2015, dated 2018).
Read-outs that look alike come from different tables or passages of the source.

Experiments:
[1] = molecular target: SNAP-hSPR (sepiapterin reductase, SPR) (Homo sapiens, UniProt P35270); assay: biochemical; assay type: binding; settings: terbium labelled SNAP-hSPR / SSZ labelled SNAP-EGFP; read-out: hTR-FRET IC50
[2] = system: BH4 levels in SK-N-BE (2) cells; assay: SKN-N-BE (2) cellular assay, BH4 levels by LC-MS; assay type: cell-based
[3] = Homo sapiens, SKNBE2, read-out: SK-N-BE(2) IC50, SK-N-BE (2) cells, BH4 levels by LC-MS
[4] = read-out: SK-N-BE(2) IC50, SK-N-BE (2) cells, BH4 levels by LC-MS

Chain of SNAP-hSPR (sepiapterin reductase, SPR) (P35270 whole entry): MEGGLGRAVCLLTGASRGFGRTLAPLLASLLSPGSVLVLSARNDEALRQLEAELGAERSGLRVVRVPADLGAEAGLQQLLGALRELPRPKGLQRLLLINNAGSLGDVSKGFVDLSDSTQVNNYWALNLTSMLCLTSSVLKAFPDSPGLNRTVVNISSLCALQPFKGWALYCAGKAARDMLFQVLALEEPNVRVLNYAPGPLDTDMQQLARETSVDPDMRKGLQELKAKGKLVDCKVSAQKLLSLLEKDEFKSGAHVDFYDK

SMILES	IC50 [1]	IC50 [2, 3]	IC50 [2, 4]
Cc1c(C(=O)N2CCC3(CCCCN3)C2)cnn1-c1nc2c(c(=O)[nH]1)CCC2 (stereo not drawn) [Q-0577, 2-(5-methyl-4-(2,6-diazaspiro[4.5]decane-2-carbonyl)-1H-pyrazol-1-yl)-6,7-dihydro-3H-cyclopenta[d]pyrimidin-4(5H)-one]	0.04 µM	2.1 µM	
CC(C#N)C1CCN(C(=O)c2cnn(-c3nc4c(c(=O)[nH]3)CCC4)c2C2CC2)CC1 (stereo not drawn) [Q-0578]	0.008 µM	0.7 µM	
Cc1c(C(=O)N2CCC3(CCCCN3C(=O)OC(C)(C)C)C2)cnn1-c1nc2ccsc2c(=O)[nH]1 (stereo not drawn) [Q-0579]	0.005 µM	0.1 µM	
Cc1c(C(=O)N2CCC(C(C)(C)C)CC2)cnn1-c1nc2c(c(=O)[nH]1)CCC2 [Q-0580]	0.003 µM	0.022 µM	
Cc1c(C(=O)N2CC(CNC(=O)OC(C)(C)C)C2)cnn1-c1nc2ccsc2c(=O)[nH]1 [Q-0582]	0.02 µM	1 µM	
Cc1c(C(=O)N2CC(CN)C2)cnn1-c1nc2ccsc2c(=O)[nH]1 [Q-0583]	0.1 µM	3.7 µM	
CN[C@@H]1CCN(C(=O)c2cnn(-c3nc4ccsc4c(=O)[nH]3)c2C)C1 [Q-0584]	0.2 µM	10 µM	
Cc1c(C(=O)N2CCC(c3c[nH]c4ccccc34)CC2)cnn1-c1nn2cccc2c(=O)[nH]1 [Q-0585]	0.006 µM	0.033 µM	
Cc1c(C(=O)N2CCC(c3nc4cc(F)ccc4s3)CC2)cnn1-c1nc2c(c(=O)[nH]1)CCC2 [Q-0587]	0.01 µM	0.021 µM	
CN[C@@H]1CCN(C(=O)c2cnn(-c3nc4c(c(=O)[nH]3)CCC4)c2C)C1 [Q-0588]	0.07 µM	4.7 µM	
Cc1c(C(=O)N2CC(CN)C2)cnn1-c1nc2c(c(=O)[nH]1)CCC2 [Q-0589]	0.06 µM	1.7 µM	
Cc1c(C(=O)N2CCC(c3nc4ccc(F)cc4s3)CC2)cnn1-c1nc2c(c(=O)[nH]1)CCC2 [Q-0590]	0.003 µM	0.015 µM	
Cc1c(C(=O)N2CCC(c3cn(C)c4ccccc34)CC2)cnn1-c1nc2c(c(=O)[nH]1)CCC2 [Q-0592]	0.02 µM	0.076 µM	
O=C(c1cccc(-c2nc3c(c(=O)[nH]2)CCC3)c1)N1CCC(C(F)(F)F)CC1 [Q-0593, 2-(3-(4-(trifluoromethyl)piperidine-1-carbonyl)phenyl)-6,7-dihydro-3H-cyclopenta[d]pyrimidin-4(5H)-one]	0.2 µM	7.4 µM	
Cc1c(C(=O)N2CCC(c3c[nH]c4ccccc34)CC2)ccnc1-c1nc2ccsc2c(=O)[nH]1 [Q-0594]	0.3 µM	3.6 µM	
Cc1c(C(=O)N2CCC3(CCCCN3)C2)cnn1-c1nc2ccsc2c(=O)[nH]1 (stereo not drawn) [Q-0595]	0.07 µM	4.4 µM	
Cc1c(C(=O)N2CC2c2ccccc2)cnn1-c1nc2c(c(=O)[nH]1)CCC2 (stereo not drawn) [Q-0596]	0.004 µM	0.016 µM	
Cc1c(C(=O)N2CCC(S(=O)(=O)c3ccc(F)c(F)c3)CC2)cnn1-c1nc2ccsc2c(=O)[nH]1 [Q-0597]	0.003 µM	0.053 µM	
Cc1c(C(=O)N2CCC(C(O)(C(F)(F)F)C(F)(F)F)CC2)cnn1-c1nc2c(c(=O)[nH]1)CCC2 [Q-0598]	0.004 µM		0.01 µM

SMILES	IC50 [1]	IC50 [2, 3]	IC50 [2, 4]
Cc1c(C(=O)N2CCC(C#N)(c3ccccc3)CC2)cnn1-c1nn2cccc2c(=O)[nH]1 [Q-0599]	0.002 µM	0.012 µM	
Cc1c(C(=O)N2CCC(C(C)(C)C#N)CC2)cnn1-c1nn2cccc2c(=O)[nH]1 [Q-0600]	0.001 µM	0.057 µM	
Cc1c(C(=O)N2CCC3(CCCN3Cc3ccccc3)C2)cnn1-c1nc2ccsc2c(=O)[nH]1 (stereo not drawn) [Q-0601]	0.005 µM	0.1 µM	
Cc1c(C(=O)N2CC3COCC(C3)C2)cnn1-c1nc2ccsc2c(=O)[nH]1 [Q-0602]	0.02 µM	1.2 µM	
Cc1c(C(=O)N2CCC(c3nc4cc(F)ccc4s3)CC2)cnn1-c1nc2ccsc2c(=O)[nH]1 [Q-0603]	0.006 µM	0.1 µM	
Cc1c(C(=O)N2CCC(c3nc4cc(F)ccc4s3)CC2)cnn1-c1nn2cccc2c(=O)[nH]1 [Q-0604]	0.007 µM	0.072 µM	
Cc1c(C(=O)N2CCC(c3nc4ccccc4s3)CC2)ccnc1-c1nc2ccsc2c(=O)[nH]1 [Q-0605]	0.2 µM	10 µM	
Cc1c(C(=O)N2CCC(C(F)(F)F)CC2)cnn1-c1nn2c(F)ccc2c(=O)[nH]1 [Q-0606]	0.002 µM	0.051 µM	
Cc1c(C(=O)N2CCC(c3nc4ccccc4s3)CC2)cnn1-c1nn2c(F)ccc2c(=O)[nH]1 [Q-0607]	0.005 µM	0.087 µM	
Cc1c(C(=O)N2CCC(c3nc4ccccc4s3)CC2)cnn1-c1nn2cccc2c(=O)[nH]1 [Q-0608]	0.002 µM	0.056 µM	
O=C(c1ccc(-c2nc3c(c(=O)[nH]2)CCC3)s1)N1CCC(C(F)(F)F)CC1 [Q-0609, 2-(5-(4-(trifluoromethyl)piperidine-1-carbonyl)thiophen-2-yl)-6,7-dihydro-3H-cyclopenta[d]pyrimidin-4(5H)-one]	0.001 µM	0.084 µM	
Cc1c(C(=O)N2C[C@@H]3[C@H](C2)[C@@H]3C(N)=O)cnn1-c1nc2c(c(=O)[nH]1)CCC2 [Q-0610]	0.01 µM	10 µM	
Cc1[nH]c2ccccc2c1C1CCN(C(=O)c2cnn(-c3nc4c(c(=O)[nH]3)CCC4)c2C)CC1 [Q-0611]	0.004 µM	0.029 µM	
COC(=O)C12CC(C(=O)N3CCN(C(=O)c4cnn(-c5nc6c(c(=O)[nH]5)CCC6)c4C)CC3)(C1)C2 [Q-0612]	0.01 µM	2.6 µM	
Cc1c(C(=O)N2CC3CC3(O)C2)cnn1-c1nc2c(c(=O)[nH]1)CCC2 (stereo not drawn) [Q-0614]	0.01 µM	1.6 µM	
Cc1c(C(=O)N2CCC(c3cccc4[nH]ccc34)CC2)cnn1-c1nc2c(c(=O)[nH]1)CCC2 [Q-0615]	0.003 µM	0.019 µM	
O=C(c1cnn(-c2nn3cc(F)cc3c(=O)[nH]2)c1)N1CCC(C(F)(F)F)CC1 [Q-0616, 6-fluoro-2-(4-(4-(trifluoromethyl)piperidine-1-carbonyl)-1H-pyrazol-1-yl)pyrrolo[1,2-f][1,2,4]triazin-4(3H)-one]	0.002 µM	0.1 µM	
Cc1c(C(=O)N2CC3CC3(O)C2)cnn1-c1nc2sccc2c(=O)[nH]1 (stereo not drawn) [Q-0617]	0.02 µM	3 µM	
COC(=O)c1cnn(-c2nn3c(F)ccc3c(=O)[nH]2)c1C1CC1 [Q-0618]	0.001 µM	0.025 µM	

SMILES	IC50 [1]	IC50 [2, 3]	IC50 [2, 4]
COC(=O)c1cnn(-c2nn3c(F)ccc3c(=O)[nH]2)c1C [Q-0619]	0.003 µM	0.3 µM	
O=C(c1cnn(-c2nn3c(F)ccc3c(=O)[nH]2)c1C1CC1)N1CCC(C(F)(F)F)CC1 [Q-0620]	0.001 µM	0.1 µM	
Cc1c(C(=O)N2CC3CC3(O)C2)cnn1-c1nc2ccsc2c(=O)[nH]1 (stereo not drawn) [Q-0621]	0.02 µM	5.2 µM	
Cc1c(C(=O)N2CCC(C(F)(F)F)CC2)ccn1-c1nc2c(c(=O)[nH]1)CCC2 [Q-0622, 2-(2-methyl-3-(4-(trifluoromethyl)piperidine-1-carbonyl)-1H-pyrrol-1-yl)-6,7-dihydro-3H-cyclopenta[d]pyrimidin-4(5H)-one]	0.001 µM	0.058 µM	
CCC1(C#N)CCN(C(=O)c2cnn(-c3nn4c(F)ccc4c(=O)[nH]3)c2C)CC1 [Q-0623]	0.001 µM	0.078 µM	
Cc1c(C(=O)N2CCC(c3c[nH]c4ccccc34)CC2)cnn1-c1nn2c(F)ccc2c(=O)[nH]1 [Q-0624]	0.002 µM	0.032 µM	
CCC(C#N)(CC)C1CCN(C(=O)c2cnn(-c3nc4c(c(=O)[nH]3)CCC4)c2C)CC1 [Q-0626]	0.001 µM	0.014 µM	
Cc1c(C(=O)N2CCN(C(=O)C34CC(C(=O)O)(C3)C4)CC2)cnn1-c1nc2c(c(=O)[nH]1)CCC2 [Q-0627, 3-(4-(5-methyl-1-(4-oxo-4,5,6,7-tetrahydro-3H-cyclopenta[d]pyrimidin-2-yl)-1H-pyrazole-4-carbonyl)piperazine-1-carbonyl)bicyclo[1.1.1]pentane-1-carboxylic acid]	0.009 µM	10 µM	
Cc1c(C(=O)N2CCN(C(=O)C34CC(C(N)=O)(C3)C4)CC2)cnn1-c1nc2c(c(=O)[nH]1)CCC2 [Q-0630]	0.009 µM	10 µM	
Cc1c(C(=O)N2CCN(C(=O)C34CC(C#N)(C3)C4)CC2)cnn1-c1nc2c(c(=O)[nH]1)CCC2 [Q-0632, 3-(4-(5-methyl-1-(4-oxo-4,5,6,7-tetrahydro-3H-cyclopenta[d]pyrimidin-2-yl)-1H-pyrazole-4-carbonyl)piperazine-1-carbonyl)bicyclo[1.1.1]pentane-1-carbonitrile]	0.004 µM	7.3 µM	
Cc1c(C(=O)N2CCCCC2)cnn1-c1nc2c(c(=O)[nH]1)CCC2 [Q-0633]	0.005 µM	0.4 µM	
Cc1c(C(=O)N2CCCCC2)cnn1-c1nn2cccc2c(=O)[nH]1 [Q-0634]	0.003 µM	0.7 µM	
Cc1c(C(=O)N2CCC3(CC2)CC3)cnn1-c1nn2cccc2c(=O)[nH]1 [Q-0681]	0.001 µM	0.2 µM	
Cc1c(C(=O)N2CCC3(CC2)CC(F)(F)C3)cnn1-c1nc2c(c(=O)[nH]1)CCC2 [Q-0691]	0.002 µM	0.091 µM	
Cc1c(C(=O)N2CCC3(CC2)CC3c2nnc(-c3ccccc3)o2)cnn1-c1nn2cccc2c(=O)[nH]1 (stereo not drawn) [Q-0696]	0.004 µM	0.4 µM	
Cc1c(C(=O)N2CCC3(CC2)CC3c2nnc(-c3ccccc3)o2)cnn1-c1nc2c(c(=O)[nH]1)CCC2 (stereo not drawn) [Q-0697]	0.004 µM	0.2 µM	
Cc1c(C(=O)N2CCC(C3CC3)CC2)cnn1-c1nc2ccsc2c(=O)[nH]1 [Q-0698]	0.001 µM	0.071 µM	
Cc1c(C(=O)N2CCC(C3CC3)CC2)cnn1-c1nc2sccc2c(=O)[nH]1 [Q-0700]	0.002 µM	0.1 µM	
Cc1c(C(=O)N2CCC(C(O)(C(F)(F)F)C(F)(F)F)CC2)cnn1-c1nc2c(c(=O)[nH]1)CCC2 [Q-0701]	0.002 µM		0.082 µM
